Target: T1, SIRT1 (Homo sapiens, UniProt Q96EB6)
T1 construct: His-tag (N); made in house; host or cells: E. coli BL21(DE3), T7-promoter vector
T1 sequence (Q96EB6 1-747): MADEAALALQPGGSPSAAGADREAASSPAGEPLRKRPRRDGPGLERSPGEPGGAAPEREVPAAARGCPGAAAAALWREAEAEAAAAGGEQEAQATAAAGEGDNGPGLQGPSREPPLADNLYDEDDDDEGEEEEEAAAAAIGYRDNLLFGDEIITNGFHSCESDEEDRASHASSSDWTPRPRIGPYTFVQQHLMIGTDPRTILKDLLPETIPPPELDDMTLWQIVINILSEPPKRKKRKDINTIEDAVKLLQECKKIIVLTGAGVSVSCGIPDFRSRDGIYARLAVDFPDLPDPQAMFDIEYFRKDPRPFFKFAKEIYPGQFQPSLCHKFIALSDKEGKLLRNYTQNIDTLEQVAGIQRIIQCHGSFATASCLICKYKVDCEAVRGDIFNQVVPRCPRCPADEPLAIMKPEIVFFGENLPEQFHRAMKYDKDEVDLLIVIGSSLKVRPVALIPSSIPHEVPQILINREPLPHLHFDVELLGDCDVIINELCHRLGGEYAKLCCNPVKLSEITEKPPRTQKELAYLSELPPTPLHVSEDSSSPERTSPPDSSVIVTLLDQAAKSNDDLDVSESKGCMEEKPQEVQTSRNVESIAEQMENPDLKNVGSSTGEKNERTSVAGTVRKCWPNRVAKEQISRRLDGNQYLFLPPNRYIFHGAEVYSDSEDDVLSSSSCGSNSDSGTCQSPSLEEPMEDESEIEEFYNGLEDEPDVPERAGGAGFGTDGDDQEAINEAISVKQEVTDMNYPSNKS
Assay: Mass spectrometry based assay for modulators of SIRT1 activity (deacetylation of p53-based acetylated peptide)
Type: biochemical
Details: for EC1.5: concentration of test compound that results in 150% activation of SIRT1, 0.5 μM peptide substrate, 120 μM βNAD+, 10 nM SIRT1, 25 min, 25° C.; for Emax: percent maximum fold activation of SIRT1
In short: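 Reaction: 10 nM His-tagged human SIRT1 (E. coli-expressed) with 0.5 μM 5TMR-labelled acetylated p53-derived peptide and 120 μM NAD+, 25 min at 25 °C, pH 8 Tris-acetate buffer; formic acid quench. Deacetylation quantified by mass spectrometry against a DMSO control; EC1.5 = concentration giving 150% activation.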

Structure (SMILES) | EC1.5 | Emax [%]
O=C(Nc1nccs1)c1cccn2nc(-c3ccc(N4CCOCC4)cc3C(F)(F)F)nc12 [Compound 219, 2-(4-morpholino-2-(trifluoromethyl)phenyl)-N-(thiazol-2-yl)-[1,2,4]triazolo[1,5-a]pyridine-8-carboxamide] | A (EC1.5<1.0 uM) | > 200
O=C(Nc1ccccn1)c1cccn2nc(-c3ccc(N4CCOCC4)cc3C(F)(F)F)nc12 [Compound 220] | A (EC1.5<1.0 uM) | > 200
O=C(Nc1nccs1)c1cccn2nc(-c3cc(N4CCOCC4)ccc3C(F)(F)F)nc12 [Compound 221, 2-(5-morpholino-2-(trifluoromethyl)phenyl)-N-(thiazol-2-yl)-[1,2,4]triazolo[1,5-a]pyridine-8-carboxamide] | A (EC1.5<1.0 uM) | > 200
O=C(Nc1ccccn1)c1cccn2nc(-c3cc(N4CCOCC4)ccc3C(F)(F)F)nc12 [Compound 222] | A (EC1.5<1.0 uM) | > 200
O=C(Nc1nccs1)c1cccn2nc(-c3cc(Cl)ccc3C(F)(F)F)nc12 [Compound 223] | B (EC1.5 1-25 uM) | < 200
O=C(Nc1ccccn1)c1cccn2nc(-c3cc(Cl)ccc3C(F)(F)F)nc12 [Compound 224] | B (EC1.5 1-25 uM) | < 200
O=C(Nc1nccs1)c1cccn2nc(-c3ccccc3OC(F)F)nc12 [Compound 225] | B (EC1.5 1-25 uM) | > 200
O=C(Nc1ccccn1)c1cccn2nc(-c3ccccc3OC(F)F)nc12 [Compound 226] | B (EC1.5 1-25 uM) | > 200
O=C(Nc1nccs1)c1cccn2nc(-c3ccccc3OC(F)(F)F)nc12 [Compound 227] | B (EC1.5 1-25 uM) | > 200
O=C(Nc1ccccn1)c1cccn2nc(-c3ccccc3OC(F)(F)F)nc12 [Compound 228] | B (EC1.5 1-25 uM) | > 200
Cc1nc(C)c(-c2nc3c(C(=O)Nc4nccs4)cccn3n2)s1 [Compound 229] | C (EC1.5>25 uM) | < 200
Cc1nc(C)c(-c2nc3c(C(=O)Nc4ccccn4)cccn3n2)s1 [Compound 230] | C (EC1.5>25 uM) | < 200
O=C(Nc1nc(CN2CCOCC2)cs1)c1cccn2cc(-c3cccc(F)c3F)nc12 [Compound 231] | B (EC1.5 1-25 uM) | < 200
O=C(Nc1cccc(CN2CCOCC2)n1)c1cccn2cc(-c3cccc(F)c3F)nc12 [Compound 232] | B (EC1.5 1-25 uM) | < 200
O=C(Nc1nc(CN2CCOCC2)cs1)c1cccn2cc(-c3cccc(Cl)c3)nc12 [Compound 233] | A (EC1.5<1.0 uM) | > 200
O=C(Nc1cccc(CN2CCOCC2)n1)c1cccn2cc(-c3cccc(Cl)c3)nc12 [Compound 234] | A (EC1.5<1.0 uM) | > 200
O=C(Nc1nc(CN2CCOCC2)cs1)c1cccn2cc(-c3ccc(F)c(Cl)c3)nc12 [Compound 235] | A (EC1.5<1.0 uM) | > 200
O=C(Nc1cccc(CN2CCOCC2)n1)c1cccn2cc(-c3ccc(F)c(Cl)c3)nc12 [Compound 236] | A (EC1.5<1.0 uM) | > 200
O=C(Nc1nc(CN2CCOCC2)cs1)c1cccn2cc(-c3ccc(F)cc3C(F)(F)F)nc12 [Compound 237] | A (EC1.5<1.0 uM) | > 200
O=C(Nc1cccc(CN2CCOCC2)n1)c1cccn2cc(-c3ccc(F)cc3C(F)(F)F)nc12 [Compound 238] | A (EC1.5<1.0 uM) | > 200
Cc1ncccc1-c1nc2c(C(=O)Nc3nccs3)cccn2n1 [Compound 239, 2-(2-methylpyridin-3-yl)-N-(thiazol-2-yl)-[1,2,4]triazolo[1,5-a]pyridine-8-carboxamide] | C (EC1.5>25 uM) | < 200
Cc1ncccc1-c1nc2c(C(=O)Nc3ccccn3)cccn2n1 [Compound 240] | C (EC1.5>25 uM) | < 200
Cc1ncccc1-c1nc2c(C(=O)Nc3nc(CN4CCOCC4)cs3)cccn2n1 [Compound 241] | B (EC1.5 1-25 uM) | < 200

Structure (SMILES) | EC1.5 | Emax [%]
Cc1ncccc1-c1nc2c(C(=O)Nc3cccc(CN4CCOCC4)n3)cccn2n1 [Compound 242] | B (EC1.5 1-25 uM) | > 200
O=C(Nc1cccnn1)c1nccn2cc(-c3ccccc3OC(F)(F)F)nc12 [Compound 243] | B (EC1.5 1-25 uM) | > 200
O=C(Nc1ccncn1)c1nccn2cc(-c3ccccc3OC(F)(F)F)nc12 [Compound 244] | B (EC1.5 1-25 uM) | > 200
O=C(Nc1cnccn1)c1nccn2cc(-c3ccccc3OC(F)(F)F)nc12 [Compound 245] | A (EC1.5<1.0 uM) | > 200
O=C(Nc1ccncn1)c1nccn2cc(-c3ccc(F)cc3C(F)(F)F)nc12 [Compound 246] | A (EC1.5<1.0 uM) | > 200
O=C(Nc1cnccn1)c1nccn2cc(-c3ccc(F)cc3C(F)(F)F)nc12 [Compound 247] | B (EC1.5 1-25 uM) | > 200
O=C(Nc1ccccn1)c1cccn2nc(-c3ccc(OCCN4CCOCC4)cc3C(F)F)nc12 [Compound 248] | B (EC1.5 1-25 uM) | > 200
O=C(Nc1ccccn1)c1cccn2nc(-c3ccc(OC[C@@H](O)CO)cc3C(F)F)nc12 [Compound 250] | B (EC1.5 1-25 uM) | > 200
O=C(Nc1ccccn1)c1cccn2cc(-c3ccc(CN4CCOCC4)cc3)nc12 [Compound 251] | B (EC1.5 1-25 uM) | > 200
O=C(Nc1nccs1)c1cccn2cc(-c3ccc(CN4CCCC4)cc3)nc12 [Compound 252] | B (EC1.5 1-25 uM) | > 200
O=C(Nc1ccccn1)c1cccn2cc(-c3ccc(CN4CCCC4)cc3)nc12 [Compound 253] | B (EC1.5 1-25 uM) | > 200
O=C(Nc1nccs1)c1cccn2cc(-c3cccc(CN4CCOCC4)c3)nc12 [Compound 254] | A (EC1.5<1.0 uM) | > 200
O=C(Nc1ccccn1)c1cccn2cc(-c3cccc(CN4CCOCC4)c3)nc12 [Compound 255] | A (EC1.5<1.0 uM) | > 200
O=C(Nc1nccs1)c1cccn2cc(-c3cccc(CN4CCCC4)c3)nc12 [Compound 256] | B (EC1.5 1-25 uM) | > 200
O=C(Nc1ccccn1)c1cccn2cc(-c3cccc(CN4CCCC4)c3)nc12 [Compound 257] | B (EC1.5 1-25 uM) | > 200
O=C(Nc1nc(CN2CCOCC2)cs1)c1nccn2cc(-c3ccccc3C(F)(F)F)nc12 [Compound 258] | A (EC1.5<1.0 uM) | > 200
O=C(Nc1cccc(CN2CCOCC2)n1)c1nccn2cc(-c3ccccc3C(F)(F)F)nc12 [Compound 259] | A (EC1.5<1.0 uM) | > 200
O=C(Nc1nc(CN2CCOCC2)cs1)c1nccn2cc(-c3ccc(F)cc3C(F)(F)F)nc12 [Compound 260] | A (EC1.5<1.0 uM) | > 200
O=C(Nc1cccc(CN2CCOCC2)n1)c1nccn2cc(-c3ccc(F)cc3C(F)(F)F)nc12 [Compound 261] | A (EC1.5<1.0 uM) | > 200
O=C(Nc1nccs1)c1cccn2cc(-c3ccc(CN4CCOCC4)cc3)nc12 [Compound 262, 2-(4-(morpholinomethyl)phenyl)-N-(thiazol-2-yl)imidazo[1,2-a]pyridine-8-carboxamide] | B (EC1.5 1-25 uM) | > 200
O=C(Nc1nccs1)c1cccn2nc(-c3ccc(F)cc3C(F)F)nc12 [Compound 263] | C (EC1.5>25 uM) | < 200
O=C(Nc1nccs1)c1cccn2nc(-c3ccc(OCCN4CCOCC4)cc3C(F)F)nc12 [Compound 265, 2-(2-(difluoromethyl)-4-(2-morpholinoethoxy)phenyl)-N-(thiazol-2-yl)-[1,2,4]triazolo[1,5-a]pyridine-8-carboxamide] | B (EC1.5 1-25 uM) | < 200

— patent US20110077248A1, “IMIDAZOPYRIDINE AND RELATED ANALOGS AS SIRTUIN MODULATORS” (Sirtris Pharmaceuticals, Inc., priority 2008, published 2011)
